Laboratory results from ChEMBL document CHEMBL1221328, “Relationships between structures of hydroxyflavones and their antioxidative effects” (Bioorg Med Chem Lett, 2010).

Assay: Antioxidant activity assessed as […] radical scavenging activity
Assay type: functional
Design: concentration or dose not given beside the values

First: O=c1cc(-c2ccc(O)c(O)c2)oc2ccc(O)cc12
Second: O=c1cc(-c2ccc(O)c(O)c2)oc2cc(O)ccc12
The Activity of the first is lower: 83.9% for the first, 84.9% for the second.

Compared with O=c1cc(-c2ccccc2)oc2c(O)c(O)cc(O)c12, O=c1c(O)c(-c2ccccc2)oc2cc(O)cc(O)c12 is lower in Activity: 58.8% for the first, 52.5% for the second.

Compared with O=c1c(O)c(-c2cc(O)c(O)c(O)c2)oc2cc(O)cc(O)c12, O=c1c(O)c(-c2ccc(O)c(O)c2)oc2cc(O)cc(O)c12 is higher in Activity: 79.5% for the first, 87.8% for the second.

Going from O=c1c(O)c(-c2ccccc2O)oc2cc(O)cc(O)c12 to O=c1c(O)c(-c2ccc(O)cc2O)oc2cc(O)cc(O)c12, the Activity falls from 86.5% to 81.5%.

Compared with O=c1c(O)c(-c2ccccc2O)oc2ccccc12, O=c1c(O)c(-c2ccccc2O)oc2ccc(O)cc12 is higher in Activity: 69.3% for the first, 86.8% for the second.

Going from O=c1c(O)c(-c2ccc(O)c(O)c2)oc2cc(O)ccc12 to O=c1c(O)c(-c2ccc(O)c(O)c2)oc2ccc(O)cc12, the Activity rises from 85.2% to 86.7%.

Going from O=c1cc(-c2cc(O)cc(O)c2)oc2ccccc12 to O=c1cc(-c2cc(O)c(O)c(O)c2)oc2cc(O)ccc12, the Activity rises from 61.8% to 88.8%.

Compared with O=c1cc(-c2cccc(O)c2)oc2c(O)c(O)ccc12, O=c1cc(-c2ccc(O)c(O)c2)oc2c(O)c(O)ccc12 is higher in Activity: 87.1% for the first, 87.4% for the second.

First: O=c1c(O)c(-c2cc(O)c(O)cc2O)oc2ccc(O)cc12
Second: O=c1c(O)c(-c2ccc(O)cc2O)oc2ccc(O)cc12
The Activity of the first is lower: 85.6% for the first, 86.3% for the second.

Going from O=c1cc(-c2cccc(O)c2O)oc2ccc(O)cc12 to O=c1c(O)c(-c2cccc(O)c2O)oc2ccc(O)cc12, the Activity falls from 87.1% to 86.6%.

Going from O=c1c(O)c(-c2ccc(O)c(O)c2)oc2c(O)c(O)cc(O)c12 to O=c1c(O)c(-c2cc(O)c(O)c(O)c2)oc2cc(O)ccc12, the Activity falls from 85.4% to 79.9%.

Compared with O=c1cc(-c2ccc(O)cc2)oc2cc(O)c(O)c(O)c12, O=c1c(O)c(-c2ccc(O)cc2)oc2cc(O)cc(O)c12 is higher in Activity: 69.9% for the first, 77.2% for the second.

Compared with O=c1c(O)c(-c2ccccc2)oc2cccc(O)c12, O=c1c(O)c(-c2ccc(O)c(O)c2)oc2ccccc12 is higher in Activity: 58.3% for the first, 85.7% for the second.

Going from O=c1cc(-c2ccc(O)c(O)c2)oc2cc(O)c(O)cc12 to O=c1cc(-c2cc(O)c(O)c(O)c2)oc2cc(O)cc(O)c12, the Activity rises from 86.4% to 88.1%.

Going from O=c1cc(-c2ccccc2O)oc2c(O)c(O)ccc12 to O=c1c(O)c(-c2ccccc2O)oc2c(O)c(O)ccc12, the Activity rises from 79.9% to 83.1%.
